From PubChem BioAssay AID248 (DTP/NCI, 2004)
Where “and” joins values, the source holds several entries; their conditions need not be identical. Identical values can stand only once. Toxic doses and inconclusive results are not listed.

Test system: L1210 leukemia ip in BDF1 mice, survival T/C
Assay: NCI In Vivo Anticancer Drug Screen. Data for tumor model L1210 Leukemia (intraperitoneal) in B6D2F1 (BDF1) mice
Conditions: endpoint: mean survival time, higher = longer survival
Outline: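 Value reflects the ratio of survival in compound-treated mice to survival in vehicle-treated controls, with both groups carrying the same transplanted tumor.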

[1] = dose: 10.0 mg/kg/injection, schedule: Q01DX001 (ip), vehicle: saline
[2] = dose: 100.0 mg/kg/injection, schedule: Q01DX009 (ip), vehicle: saline with Tween-80
[3] = dose: 200.0 mg/kg/injection, schedule: Q01DX009 (ip), vehicle: saline with Tween-80
[4] = dose: 50.0 mg/kg/injection, schedule: Q01DX001 (ip), vehicle: saline
[5] = dose: 100.0 mg/kg/injection, schedule: Q01DX001 (ip), vehicle: saline
[6] = dose: 200.0 mg/kg/injection, schedule: Q01DX001 (ip), vehicle: saline
[7] = dose: 400.0 mg/kg/injection, schedule: Q01DX001 (ip), vehicle: saline
[8] = dose: 100.0 mg/kg/injection, schedule: Q04DX003 (ip), vehicle: saline with Tween-80
[9] = dose: 200.0 mg/kg/injection, schedule: Q04DX003 (ip), vehicle: saline with Tween-80
[10] = dose: 400.0 mg/kg/injection, schedule: Q04DX003 (ip), vehicle: saline with Tween-80

In the case of `NC(=O)CNC1=C(N2CC2)C(=O)C(NCC(N)=O)=C(N2CC2)C1=O`, the T/C (dose: 0.12 mg/kg/injection, schedule: Q04DX003 (ip), vehicle: saline) is reported as 106 % of control, the T/C (dose: 0.25 mg/kg/injection, schedule: Q04DX003 (ip), vehicle: saline) is reported as 101 % of control and the T/C (dose: 0.5 mg/kg/injection, schedule: Q04DX003 (ip), vehicle: saline) is reported as 116 % of control. The T/C (dose: 1.0 mg/kg/injection, schedule: Q04DX003 (ip), vehicle: saline) was 119 % of control, the T/C (dose: 1.25 mg/kg/injection, schedule: Q01DX001 (ip), vehicle: saline) was 102 % of control and the T/C (dose: 1.25 mg/kg/injection, schedule: Q01DX009 (ip), vehicle: saline) was 102 % of control. The T/C (dose: 2.5 mg/kg/injection, schedule: Q01DX001 (ip), vehicle: saline) was 100 % of control, the T/C (dose: 2.5 mg/kg/injection, schedule: Q01DX009 (ip), vehicle: saline) was 124 % of control and the T/C (dose: 5.0 mg/kg/injection, schedule: Q01DX001 (ip), vehicle: saline) was 108 % of control. The T/C (dose: 5.0 mg/kg/injection, schedule: Q01DX009 (ip), vehicle: saline) was 163 % of control, the T/C (dose: 8.0 mg/kg/injection, schedule: Q04DX003 (ip), vehicle: saline) was 193 % of control and the T/C [1] was 115 % of control. For the same compound, the T/C (dose: 10.0 mg/kg/injection, schedule: Q01DX009 (ip), vehicle: saline) was 158 % of control and 191 % of control and the T/C (dose: 12.0 mg/kg/injection, schedule: Q04DX003 (ip), vehicle: saline) was 122 % of control.
In the case of `Cc1cccn2c(=O)c(/C=N\NC(N)=S)c(Cl)nc12`, the T/C (dose: 100.0 mg/kg/injection, schedule: Q01DX001 (ip), vehicle: carboxymethylcellulose (CMC)) is reported as 105 % of control, the T/C (dose: 200.0 mg/kg/injection, schedule: Q01DX001 (ip), vehicle: carboxymethylcellulose (CMC)) is reported as 96 % of control and the T/C (dose: 400.0 mg/kg/injection, schedule: Q01DX001 (ip), vehicle: carboxymethylcellulose (CMC)) is reported as 94 % of control.
With `O=C1NC(=S)S/C1=C\c1ccc(Cl)c(Cl)c1` the T/C [2] was 97 % of control and the T/C [3] was 95 % of control.
In the case of `CC/C(Cc1ccc(O)cc1)=N\N=C(N)N`, the T/C (dose: 15.0 mg/kg/injection, schedule: Q01DX Z (ip), vehicle: methylcellulose (MC)) is reported as 97 % of control, the T/C (dose: 30.0 mg/kg/injection, schedule: Q01DX Z (ip), vehicle: methylcellulose (MC)) is reported as 94 % of control and the T/C (dose: 30.0 mg/kg/injection, schedule: Q01DX Z (oral), vehicle: methylcellulose (MC)) is reported as 92 % of control. The T/C (dose: 60.0 mg/kg/injection, schedule: Q01DX Z (ip), vehicle: methylcellulose (MC)) was 97 % of control, the T/C (dose: 60.0 mg/kg/injection, schedule: Q01DX Z (oral), vehicle: methylcellulose (MC)) was 98 % of control and the T/C (dose: 240.0 mg/kg/injection, schedule: Q01DX Z (oral), vehicle: methylcellulose (MC)) was 93 % of control.
For `CC(Cc1ccccc1)NN` (stereo not given), the T/C (dose: 3.9 mg/kg/injection, schedule: Q01DX009 (ip), vehicle: saline) was 93 % of control, the T/C (dose: 7.81 mg/kg/injection, schedule: Q01DX009 (ip), vehicle: saline) was 96 % of control and the T/C (dose: 15.62 mg/kg/injection, schedule: Q01DX009 (ip), vehicle: saline) was 93 % of control. For the same compound, the T/C (dose: 15.62 mg/kg/injection, schedule: Q04DX003 (ip), vehicle: saline) was 107 % of control, the T/C (dose: 31.25 mg/kg/injection, schedule: Q04DX003 (ip), vehicle: saline) was 98 % of control and the T/C (dose: 62.5 mg/kg/injection, schedule: Q04DX003 (ip), vehicle: saline) was 104 % of control.
`O=C1CCCCCCCC1O` (stereo not given) was tested, and the T/C [4] was 96 % of control, the T/C [5] was 98 % of control and the T/C [6] was 102 % of control. The T/C [7] was 104 % of control.
`CCCCCCCCCCCCCCCc1cc(=O)n(-c2ccc(NC(=O)/C=C/C(=O)O)cc2)n1C` was tested, and the T/C (dose: 100.0 mg/kg/injection, schedule: Q04DX003 (ip), vehicle: Klucel (hydroxypropylcellulose) (HPC)) was 98 % of control and the T/C (dose: 200.0 mg/kg/injection, schedule: Q04DX003 (ip), vehicle: Klucel (hydroxypropylcellulose) (HPC)) was 94 % of control.
`CC1([CH2][Hg][I])COCC([CH2][Hg][I])O1` (stereo not given) was tested, and the T/C (dose: 0.78 mg/kg/injection, schedule: Q01DX001 (ip), vehicle: acetone) was 105 % of control, the T/C (dose: 0.78 mg/kg/injection, schedule: Q04DX003 (ip), vehicle: saline) was 98 % of control and the T/C (dose: 1.56 mg/kg/injection, schedule: Q01DX001 (ip), vehicle: acetone) was 94 % of control. The T/C (dose: 1.56 mg/kg/injection, schedule: Q04DX003 (ip), vehicle: saline) was 96 % of control, the T/C (dose: 3.12 mg/kg/injection, schedule: Q01DX001 (ip), vehicle: acetone) was 94 % of control and the T/C (dose: 3.12 mg/kg/injection, schedule: Q04DX003 (ip), vehicle: saline) was 98 % of control. For the same compound, the T/C (dose: 4.6 mg/kg/injection, schedule: Q04DX003 (ip), vehicle: acetone) was 93 % of control, the T/C (dose: 5.75 mg/kg/injection, schedule: Q01DX009 (ip), vehicle: acetone) was 107 % of control and the T/C (dose: 7.0 mg/kg/injection, schedule: Q04DX003 (ip), vehicle: acetone) was 96 % of control. The T/C (dose: 10.5 mg/kg/injection, schedule: Q04DX003 (ip), vehicle: acetone) was 95 % of control, the T/C (dose: 11.5 mg/kg/injection, schedule: Q01DX009 (ip), vehicle: acetone) was 107 % of control and the T/C (dose: 15.0 mg/kg/injection, schedule: Q04DX003 (ip), vehicle: saline) was 110 % of control. The T/C (dose: 23.0 mg/kg/injection, schedule: Q01DX009 (ip), vehicle: acetone) was 111 % of control and the T/C (dose: 23.0 mg/kg/injection, schedule: Q04DX003 (ip), vehicle: saline) was 110 % of control.
`BrC1=C(Br)C(Br)(Br)C(Br)=C1Br` was tested, and the T/C [1] was 101 % of control and the T/C (dose: 20.0 mg/kg/injection, schedule: Q01DX001 (ip), vehicle: saline) was 98 % of control.
`CCCCCCCC(CCCCCC)(OO)C(=O)OC` (stereo not given) was tested, and the T/C (dose: 25.0 mg/kg/injection, schedule: Q04DX002 (ip), vehicle: saline with Tween-80) was 100 % of control, the T/C (dose: 50.0 mg/kg/injection, schedule: Q04DX002 (ip), vehicle: saline with Tween-80) was 95 % of control and the T/C (dose: 100.0 mg/kg/injection, schedule: Q04DX002 (ip), vehicle: saline with Tween-80) was 91 % of control.
With `Cc1cccc(Cl)c1NC(=O)c1ccc(C(=O)Nc2c(C)cccc2Cl)cc1` the T/C (dose: 100.0 mg/kg/injection, schedule: Q01DX009 (ip), vehicle: Klucel (hydroxypropylcellulose) (HPC)) was 87 % of control, the T/C (dose: 200.0 mg/kg/injection, schedule: Q01DX009 (ip), vehicle: Klucel (hydroxypropylcellulose) (HPC)) was 94 % of control and the T/C (dose: 400.0 mg/kg/injection, schedule: Q01DX009 (ip), vehicle: Klucel (hydroxypropylcellulose) (HPC)) was 94 % of control.
With `Nc1nnnn1C(=O)NCCCl` the T/C (dose: 100.0 mg/kg/injection, schedule: Q01DX001 (ip), vehicle: Klucel (hydroxypropylcellulose) (HPC)) was 111 % of control, the T/C (dose: 200.0 mg/kg/injection, schedule: Q01DX001 (ip), vehicle: Klucel (hydroxypropylcellulose) (HPC)) was 97 % of control and the T/C (dose: 400.0 mg/kg/injection, schedule: Q01DX001 (ip), vehicle: Klucel (hydroxypropylcellulose) (HPC)) was 94 % of control.
For `CC(=O)N(N=O)c1ccc([N+](=O)[O-])cc1Cl`, the T/C [4] was 102 % of control, the T/C [5] was 102 % of control and the T/C [6] was 100 % of control. The T/C [7] was 102 % of control.
With `CCOC(=O)C(C(=O)OCC)C1CCCC(=O)C1` (stereo not given) the T/C (dose: 50.0 mg/kg/injection, schedule: Q01DX009 (ip), vehicle: saline with Tween-80) was 92 % of control, the T/C [2] was 96 % of control and the T/C [3] was 92 % of control.
In the case of `O/N=C1/CCCC/C1=C/c1ccccc1Cl`, the T/C [8] is reported as 92 % of control, the T/C [9] is reported as 100 % of control and the T/C [10] is reported as 100 % of control.
`N#C/C(=C\c1cccn1Cc1cc2ccccc2c2ccccc12)C(N)=O` was tested, and the T/C (dose: 25.0 mg/kg/injection, schedule: Q04DX002 (ip), vehicle: saline) was 105 % of control, the T/C (dose: 50.0 mg/kg/injection, schedule: Q04DX002 (ip), vehicle: saline) was 108 % of control and the T/C (dose: 100.0 mg/kg/injection, schedule: Q04DX002 (ip), vehicle: saline) was 119 % of control.
With `COc1cc(Oc2c(OC)cc(/C(C)=N/O)cc2OC)cc(OC)c1OC` the T/C [8] was 105 % of control, the T/C [9] was 92 % of control and the T/C [10] was 95 % of control.
`CCCCN1C(=O)c2c(Cl)c(Cl)c(Cl)c(Cl)c2C1=O` was tested, and the T/C (dose: 200.0 mg/kg/injection, schedule: Q04DX002 (ip), vehicle: other) was 94 % of control and the T/C (dose: 400.0 mg/kg/injection, schedule: Q04DX002 (ip), vehicle: other) was 92 % of control.
